How the values were obtained:
Cytochrome P450 2A6 [1] = target: T1, Cytochrome P450 2A6 (Homo sapiens, UniProt P11509); assay: Effect on coumarin 7-hydroxylation by human Cytochrome P-450 2A6
T1 sequence (P11509 whole entry): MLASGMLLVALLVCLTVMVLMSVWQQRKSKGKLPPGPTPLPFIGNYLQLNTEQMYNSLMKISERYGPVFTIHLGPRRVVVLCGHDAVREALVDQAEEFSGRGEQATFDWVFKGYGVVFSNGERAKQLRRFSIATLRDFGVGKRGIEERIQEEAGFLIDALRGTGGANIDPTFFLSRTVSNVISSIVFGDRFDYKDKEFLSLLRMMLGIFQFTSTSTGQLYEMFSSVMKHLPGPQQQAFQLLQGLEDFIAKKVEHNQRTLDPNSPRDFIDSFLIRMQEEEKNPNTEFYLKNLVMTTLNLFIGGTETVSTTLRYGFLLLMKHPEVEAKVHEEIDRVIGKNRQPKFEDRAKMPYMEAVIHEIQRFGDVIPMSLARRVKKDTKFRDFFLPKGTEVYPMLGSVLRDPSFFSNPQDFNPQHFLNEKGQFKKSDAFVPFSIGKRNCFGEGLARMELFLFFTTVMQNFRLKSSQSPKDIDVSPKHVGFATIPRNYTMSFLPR

CYP3A4 versus CYP2A6 = assay: Ratio of inhibition of human cytochrome P-450 3A4 to 2A6 was determined; Expressed as IC50(CYP3A4)/IC50(CYP2A6)
Cytochrome P450 2A6 [2] = target: T1, Cytochrome P450 2A6; assay: Inhibitory concentration value against human cytochrome P-450 2A6
Cytochrome P450 2E1 = Cytochrome P450 2E1 (Homo sapiens, UniProt P05181); assay: Inhibitory concentration value against human cytochrome P-450 2E1
Cytochrome P450 2C9 = Cytochrome P450 2C9 (Homo sapiens, UniProt P11712); assay: Inhibitory concentration against human cytochrome P-450 2C9
CYP2C9 versus CYP2A6 = assay: Ratio of inhibition of human cytochrome P-450 2C9 to 2A6 was determined; Expressed as IC50(CYP2C9)/IC50(CYP2A6)
Cytochrome P450 2C19 = Cytochrome P450 2C19 (Homo sapiens, UniProt P33261); assay: Inhibitory concentration value against human cytochrome P-450 2C19
CYP2D6 versus CYP2A6 = assay: Ratio of inhibition of human cytochrome P-450 2D6 to 2A6 was determined; Expressed as IC50(CYP2D6)/IC50(CYP2A6)
CYP2C19 versus CYP2A6 = assay: Ratio of inhibition of human cytochrome P-450 2C19 to 2A6 was determined; Expressed as IC50(CYP2C19)/IC50(CYP2A6)
Cytochrome P450 2D6 = Cytochrome P450 2D6 (Homo sapiens, UniProt P10635); assay: Inhibitory concentration value against human cytochrome P-450 2D6
CYP2E1 versus CYP2A6 = assay: Ratio of inhibition of human cytochrome P-450 2E1 to 2A6 was determined; Expressed as IC50(CYP2E1)/IC50(CYP2A6)
CYP2B6 versus CYP2A6 = assay: Ratio of inhibition of human cytochrome P-450 2B6 to 2A6 was determined; Expressed as IC50(CYP2B6)/IC50(CYP2A6)
Cytochrome P450 2B6 = target: T2, Cytochrome P450 2B6 (Homo sapiens, UniProt P20813); assay: Inhibitory concentration value against human cytochrome P-450 2B6
T2 sequence (P20813 whole entry): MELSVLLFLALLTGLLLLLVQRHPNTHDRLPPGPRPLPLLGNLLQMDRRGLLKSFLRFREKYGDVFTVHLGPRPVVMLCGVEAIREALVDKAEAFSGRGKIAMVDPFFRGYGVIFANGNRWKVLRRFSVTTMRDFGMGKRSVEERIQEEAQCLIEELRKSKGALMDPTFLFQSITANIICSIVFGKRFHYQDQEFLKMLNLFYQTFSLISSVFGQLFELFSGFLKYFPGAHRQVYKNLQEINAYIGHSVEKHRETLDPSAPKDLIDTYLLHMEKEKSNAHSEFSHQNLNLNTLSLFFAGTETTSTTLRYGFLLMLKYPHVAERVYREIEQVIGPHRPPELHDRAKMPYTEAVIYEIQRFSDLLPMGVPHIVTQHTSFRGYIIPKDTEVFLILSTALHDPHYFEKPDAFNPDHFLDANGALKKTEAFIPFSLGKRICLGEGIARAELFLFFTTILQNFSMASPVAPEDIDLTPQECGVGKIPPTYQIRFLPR

Cytochrome P450 3A4 = Cytochrome P450 3A4 (Homo sapiens, UniProt P08684); assay: Inhibitory concentration value against human cytochrome P-450 3A4
Sequence of Cytochrome P450 3A4 (P08684 whole entry): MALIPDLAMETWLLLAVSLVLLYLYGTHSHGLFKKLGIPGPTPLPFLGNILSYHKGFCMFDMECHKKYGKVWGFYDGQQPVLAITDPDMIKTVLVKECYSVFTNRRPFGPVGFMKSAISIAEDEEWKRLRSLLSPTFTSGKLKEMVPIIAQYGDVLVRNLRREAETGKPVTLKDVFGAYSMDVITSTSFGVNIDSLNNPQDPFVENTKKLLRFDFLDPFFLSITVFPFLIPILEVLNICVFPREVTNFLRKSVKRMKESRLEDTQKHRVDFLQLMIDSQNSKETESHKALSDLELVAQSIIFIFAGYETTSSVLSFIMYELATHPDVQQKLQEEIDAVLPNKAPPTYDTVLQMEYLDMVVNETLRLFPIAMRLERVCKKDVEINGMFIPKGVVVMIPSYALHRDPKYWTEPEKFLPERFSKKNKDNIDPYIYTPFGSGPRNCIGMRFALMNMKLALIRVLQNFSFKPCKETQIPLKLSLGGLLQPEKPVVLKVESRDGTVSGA

Sequence of Cytochrome P450 2E1 (P05181 whole entry): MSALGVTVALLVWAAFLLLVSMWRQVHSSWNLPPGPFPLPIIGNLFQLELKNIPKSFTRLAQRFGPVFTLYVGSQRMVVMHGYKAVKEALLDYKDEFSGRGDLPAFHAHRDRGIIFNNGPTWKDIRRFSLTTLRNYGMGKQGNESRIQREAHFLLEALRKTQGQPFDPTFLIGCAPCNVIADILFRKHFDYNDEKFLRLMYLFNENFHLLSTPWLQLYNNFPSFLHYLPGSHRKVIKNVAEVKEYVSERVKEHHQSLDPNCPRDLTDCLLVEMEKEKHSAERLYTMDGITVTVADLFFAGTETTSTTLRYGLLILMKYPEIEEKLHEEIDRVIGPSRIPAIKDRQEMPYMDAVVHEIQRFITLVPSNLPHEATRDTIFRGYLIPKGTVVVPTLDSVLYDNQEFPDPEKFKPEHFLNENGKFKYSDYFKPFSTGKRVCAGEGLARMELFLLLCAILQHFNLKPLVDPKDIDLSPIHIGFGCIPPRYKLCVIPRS
Sequence of Cytochrome P450 2C19 (P33261 whole entry): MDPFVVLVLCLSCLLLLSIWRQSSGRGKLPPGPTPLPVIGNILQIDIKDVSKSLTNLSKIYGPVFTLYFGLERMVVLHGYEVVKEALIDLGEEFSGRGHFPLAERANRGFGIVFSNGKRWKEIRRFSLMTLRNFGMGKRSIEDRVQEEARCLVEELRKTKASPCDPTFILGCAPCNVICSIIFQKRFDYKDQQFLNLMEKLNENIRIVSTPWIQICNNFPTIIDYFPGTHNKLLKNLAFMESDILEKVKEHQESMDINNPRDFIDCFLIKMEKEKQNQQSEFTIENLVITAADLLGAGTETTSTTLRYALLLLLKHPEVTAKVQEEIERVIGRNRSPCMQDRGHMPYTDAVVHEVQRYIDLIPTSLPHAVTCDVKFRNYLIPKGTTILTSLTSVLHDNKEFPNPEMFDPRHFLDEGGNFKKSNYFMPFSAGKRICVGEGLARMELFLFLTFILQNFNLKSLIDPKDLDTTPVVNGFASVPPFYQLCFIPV
Sequence of Cytochrome P450 2C9 (P11712 whole entry): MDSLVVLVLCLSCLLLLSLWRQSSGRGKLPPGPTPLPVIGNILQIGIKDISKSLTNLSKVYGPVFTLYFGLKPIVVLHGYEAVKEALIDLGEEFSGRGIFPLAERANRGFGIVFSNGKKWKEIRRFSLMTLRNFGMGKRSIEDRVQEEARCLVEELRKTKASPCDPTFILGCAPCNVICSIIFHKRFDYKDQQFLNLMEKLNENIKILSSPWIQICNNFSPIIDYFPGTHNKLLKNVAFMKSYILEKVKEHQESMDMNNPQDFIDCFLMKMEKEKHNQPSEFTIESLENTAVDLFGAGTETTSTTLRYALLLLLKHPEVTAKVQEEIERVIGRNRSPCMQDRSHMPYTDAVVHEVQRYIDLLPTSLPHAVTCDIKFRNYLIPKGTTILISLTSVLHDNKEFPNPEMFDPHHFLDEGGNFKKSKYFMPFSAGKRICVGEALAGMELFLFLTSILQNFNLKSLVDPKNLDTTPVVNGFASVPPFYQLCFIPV
Sequence of Cytochrome P450 2D6 (P10635 whole entry): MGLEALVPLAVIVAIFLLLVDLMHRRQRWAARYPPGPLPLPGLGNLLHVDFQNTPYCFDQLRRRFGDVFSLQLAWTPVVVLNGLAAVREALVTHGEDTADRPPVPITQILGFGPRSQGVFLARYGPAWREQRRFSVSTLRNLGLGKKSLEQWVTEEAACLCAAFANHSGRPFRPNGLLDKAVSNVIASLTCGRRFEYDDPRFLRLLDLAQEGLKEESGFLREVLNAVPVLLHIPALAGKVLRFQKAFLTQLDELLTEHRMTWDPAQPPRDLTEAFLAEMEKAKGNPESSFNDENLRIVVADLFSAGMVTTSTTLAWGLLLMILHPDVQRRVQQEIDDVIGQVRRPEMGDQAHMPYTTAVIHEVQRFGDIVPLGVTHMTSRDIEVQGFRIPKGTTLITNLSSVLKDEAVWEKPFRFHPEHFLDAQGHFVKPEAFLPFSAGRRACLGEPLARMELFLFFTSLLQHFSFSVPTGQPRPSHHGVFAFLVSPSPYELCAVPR

Structure (SMILES) | Ki (Cytochrome P450 2A6 [1]) [µM] | IC50 (Cytochrome P450 2C9) [µM] | IC50 (Cytochrome P450 2C19) [µM] | IC50 (Cytochrome P450 2B6) [µM] | IC50 (Cytochrome P450 2E1) [µM] | IC50 (Cytochrome P450 2D6) [µM] | further results
Cc1cncc(-c2cscc2C)c1 | 0.17 | – | – | – | – | – | –
c1cncc(-c2ccsc2)c1 | 0.22 | 96.3 | 111 | 59.1 | > 400 | 248 | selectivity ratio (CYP3A4 versus CYP2A6): 400; IC50 (Cytochrome P450 2A6 [2]): 1.4 µM; IC50 (Cytochrome P450 3A4): 56.9 µM; selectivity ratio (CYP2C9 versus CYP2A6): 69; selectivity ratio (CYP2D6 versus CYP2A6): 177; selectivity ratio (CYP2C19 versus CYP2A6): 81; selectivity ratio (CYP2E1 versus CYP2A6): > 286; selectivity ratio (CYP2B6 versus CYP2A6): 42
CNCC#Cc1cccnc1 | 0.89 | – | – | – | – | – | –
NCc1ccc(-c2cccnc2)o1 | – | – | – | – | – | – | selectivity ratio (CYP2D6 versus CYP2A6): 4.1
Cn1cnc(-c2cccnc2)c1 | 0.13 | 79.5 | 122 | 146 | 4.1 | 217 | selectivity ratio (CYP2D6 versus CYP2A6): 289
c1cncc(-n2cnnn2)c1 | ≥ 67 | – | – | – | – | – | –
O/N=C\c1ccc(-c2cccnc2)o1 | 13.7 | 398 | 279 | 128 | > 400 | > 400 | selectivity ratio (CYP3A4 versus CYP2A6): > 95; IC50 (Cytochrome P450 2A6 [2]): 4.2 µM; IC50 (Cytochrome P450 3A4): > 400 µM; selectivity ratio (CYP2C9 versus CYP2A6): 94; selectivity ratio (CYP2D6 versus CYP2A6): > 95; selectivity ratio (CYP2C19 versus CYP2A6): 66
CC(=O)c1ccc(-c2cccnc2)s1 | 1.4 | 98.2 | 62.7 | 217 | > 400 | 387 | selectivity ratio (CYP3A4 versus CYP2A6): 3.1; selectivity ratio (CYP2C9 versus CYP2A6): 11; selectivity ratio (CYP2D6 versus CYP2A6): 45; selectivity ratio (CYP2C19 versus CYP2A6): 7; selectivity ratio (CYP2E1 versus CYP2A6): > 46; selectivity ratio (CYP2B6 versus CYP2A6): 25
c1cncc(-c2cccnc2)c1 | – | > 300 | > 300 | – | > 300 | > 300 | –
N=Cc1ccc(-c2cccnc2)s1.N=Cc1ccc(-c2cccnc2)s1.NCc1ccc(-c2cccnc2)s1 | – | – | – | 256 | 77.5 | 197 | IC50 (Cytochrome P450 2A6 [2]): 3.7 µM; IC50 (Cytochrome P450 3A4): 77.5 µM
c1ccc(-c2cccnc2)nc1 [[2,3'']Bipyridinyl] | 7.7 | – | – | – | – | – | –
O/N=C/c1ccc(-c2cccnc2)o1.O/N=C\c1ccc(-c2cccnc2)o1 | – | – | – | – | – | > 400 | –
CN1CCC[C@H]1c1cccnc1 [NICOTINE] | 4.4 | – | – | – | – | – | –
COc1ccc(-c2cscc2C)cn1 | 6.6 | – | – | – | – | – | –
c1cncc(-c2ccc(CNCc3ccc(-c4cccnc4)s3)s2)c1 | – | – | – | – | – | – | IC50 (Cytochrome P450 3A4): > 400 µM
O/N=C/c1ccc(-c2cccnc2)o1 | 0.71 | 86.2 | 118 | 372 | > 400 | > 400 | IC50 (Cytochrome P450 3A4): > 400 µM; selectivity ratio (CYP2C9 versus CYP2A6): 1; selectivity ratio (CYP2C19 versus CYP2A6): 1.4
c1cncc(-c2nccs2)c1 | 3.2 | – | – | – | – | – | –

Now from value to compound, other results behind:

Ki (Cytochrome P450 2A6 [1]) [µM] | IC50 (Cytochrome P450 2C9) [µM] | IC50 (Cytochrome P450 2C19) [µM] | IC50 (Cytochrome P450 2B6) [µM] | Structure (SMILES) | IC50 (Cytochrome P450 2E1) [µM] | IC50 (Cytochrome P450 2D6) [µM] | further results
0.24 | 223 | 37.2 | 214 | O/N=C/c1ccc(-c2cccnc2)s1 | 4.2 | 191 | selectivity ratio (CYP3A4 versus CYP2A6): 9.3; IC50 (Cytochrome P450 2A6 [2]): 1.4 µM; selectivity ratio (CYP2C9 versus CYP2A6): 159; selectivity ratio (CYP2D6 versus CYP2A6): 136; selectivity ratio (CYP2C19 versus CYP2A6): 27; selectivity ratio (CYP2E1 versus CYP2A6): 3; selectivity ratio (CYP2B6 versus CYP2A6): 153
1.5 | – | – | – | Cc1ccsc1-c1cncc(Br)c1 | – | – | –
2.7 | – | – | – | Cc1ccc(-c2cccnc2)nc1 | – | – | –
9.8 | – | – | – | Cc1cccc(-c2cccnc2)n1 | – | – | –
0.97 | > 400 | 182 | 72.1 | Fc1ccc(-c2ccsc2)cn1 | 7.2 | 199 | selectivity ratio (CYP3A4 versus CYP2A6): 20; IC50 (Cytochrome P450 2A6 [2]): 5.8 µM; IC50 (Cytochrome P450 3A4): 114 µM; selectivity ratio (CYP2C9 versus CYP2A6): > 69; selectivity ratio (CYP2D6 versus CYP2A6): 34; selectivity ratio (CYP2C19 versus CYP2A6): 31; selectivity ratio (CYP2E1 versus CYP2A6): 1.2; selectivity ratio (CYP2B6 versus CYP2A6): 12
4.5 | – | – | – | Brc1cncc(-c2ccsc2)c1 | – | – | –
5.1 | – | – | – | Cc1ccnc(-c2cccnc2)c1 | – | – | –
0.17 | > 300 | > 300 | > 300 | Cc1cn(-c2cccnc2)cn1 | 57.9 | 297 | IC50 (Cytochrome P450 2A6 [2]): 1 µM
0.13 | 79.5 | 122 | 146 | C[n+]1c[nH]cc1-c1cccnc1 | 4.1 | 217 | selectivity ratio (CYP3A4 versus CYP2A6): 349; IC50 (Cytochrome P450 2A6 [2]): 0.75 µM; IC50 (Cytochrome P450 3A4): 262 µM; selectivity ratio (CYP2C9 versus CYP2A6): 106; selectivity ratio (CYP2D6 versus CYP2A6): 289; selectivity ratio (CYP2C19 versus CYP2A6): 163; selectivity ratio (CYP2E1 versus CYP2A6): 5; selectivity ratio (CYP2B6 versus CYP2A6): 195
≥ 67 | – | – | – | O=Cc1ccc(-c2cccnc2)o1 | – | – | –
19.7 | – | – | – | O=[N+]([O-])c1ccc(-c2cccnc2)s1 | – | – | –
1.4 | – | – | – | NCc1ccc(-c2cccnc2)cc1 | – | – | –
– | > 400 | – | – | Cc1cscc1-c1ccc(F)nc1 | – | – | –
0.52 | 75.2 | 46.4 | 83.1 | CCn1cnc(-c2cccnc2)c1 | 80 | 344 | selectivity ratio (CYP3A4 versus CYP2A6): 26; IC50 (Cytochrome P450 3A4): 79.2 µM; selectivity ratio (CYP2C9 versus CYP2A6): 24; selectivity ratio (CYP2D6 versus CYP2A6): 111; selectivity ratio (CYP2C19 versus CYP2A6): 15; selectivity ratio (CYP2E1 versus CYP2A6): 26; selectivity ratio (CYP2B6 versus CYP2A6): 26
– | 99.2 | 178 | 70.8 | c1cncc(-c2cccs2)c1 | 4.1 | > 400 | –
0.21 | – | – | – | Cc1ccsc1-c1ccc(F)nc1 | – | – | –
≥ 67 | – | – | – | COc1ccc(-c2sccc2C)cn1 | – | – | –
27.4 | – | – | – | c1cncc(-c2cncnc2)c1 | – | – | –
6.2 | – | – | – | Cc1nc(-c2cccnc2)c[nH]1 | – | – | –
6.3 | – | – | – | Clc1ccc(-c2cccnc2)cn1 | – | – | –
43.7 | – | – | – | Cc1cccnc1-c1cccnc1 | – | – | –
0.59 | 2.1 | 3.2 | 6.8 | CNc1ccc(-c2cccnc2)s1 | 31.1 | 14.4 | selectivity ratio (CYP3A4 versus CYP2A6): 2; IC50 (Cytochrome P450 2A6 [2]): 3.5 µM; IC50 (Cytochrome P450 3A4): 6.3 µM; selectivity ratio (CYP2C9 versus CYP2A6): 0.6; selectivity ratio (CYP2D6 versus CYP2A6): 4.1; selectivity ratio (CYP2C19 versus CYP2A6): 0.9; selectivity ratio (CYP2E1 versus CYP2A6): 8.9; selectivity ratio (CYP2B6 versus CYP2A6): 1.9

Source: ChEMBL document CHEMBL1145288, “5-substituted, 6-substituted, and unsubstituted 3-heteroaromatic pyridine analogues of nicotine as selective inhibitors of cytochrome P-450 2A6” (J Med Chem, 2005)
